Experiments:
Tetranychus urticae = experiment: Tetranychus test, OP-resistant (TETRUR spray treatment); type: in vivo; conditions: 100 g/ha, sprayed bean leaf discs, all stages, after 6 days
Description: Solvents: 78.0 parts by weight of acetone 1.5 parts by weight of dimethylformamide Emulsifier: 0.5 part by weight of alkylaryl polyglycol ether To produce a suitable preparation of active compound, 1 part by weight of active compound is mixed with the stated amount of solvents and emulsifier, and the concentrate is diluted with emulsifier-containing water to the desired concentration. Discs of bean leaves (Phaseolus vulgaris) which are infested by all stages of the greenhouse red spider mite (Tetranychus urticae) are sprayed with an active compound preparation of the desired concentration. After 6 days, the activity in % is determined. 100% means that all of the spider mites have been killed; 0% means that none of the spider mites have been killed.

Lucilia cuprina = Lucilia cuprina test (LUCICU); type: in vivo; conditions: 48 h, treated horse meat, larvae, after 2 days, read-out: kill in %
Description: (§1) Solvent: dimethyl sulphoxide To produce a suitable preparation of active compound, 10 mg of active compound are mixed with 0.5 ml of dimethyl sulphoxide and the concentrate is diluted with water to the desired concentration. Vessels containing horse meat treated with the active compound preparation of the desired concentration are populated with about 20 Lucilia cuprina larvae. After 2 days, the kill in % is determined. 100% means that all of the larvae have been killed; 0% means that none of the larvae have been killed.

[1] = logP by HPLC on reversed-phase columns (C 18), EEC Directive 79/831 Annex V.A8; type: physicochemical; conditions: reversed-phase HPLC column (C 18), pH 2.7, HPLC, reversed-phase C 18, acidic range pH 2.7; table of compounds; read-out: log P
Description: The logP values reported in the table above and in the Preparation Examples were determined in accordance with EEC Directive 79/831 Annex V.A8 by HPLC (High Performance Liquid Chromatography) on reversed-phase columns (C 18), with the following methods: The LC-MS determination in the acidic range is carried out at pH 2.7 using the mobile phases 0.1% aqueous formic acid and acetonitrile (contains 0.1% formic acid), linear gradient from 10% acetonitrile to 95% acetonitrile Calibration was carried out using unbranched alkan-2-ones (having from 3 to 16 carbon atoms) with known logP values (the logP values were determined by the retention times using linear interpolation between two successive alkanones).

Spodoptera frugiperda = Spodoptera frugiperda test (SPODFR spray treatment); type: in vivo; conditions: foliar, 168 h, sprayed maize leaf discs, after 7 days, read-out: effect in % (caterpillars killed)
Description: Solvents: 78.0 parts by weight of acetone 1.5 parts by weight of dimethylformamide Emulsifier: 0.5 part by weight of alkylaryl polyglycol ether To produce a suitable preparation of active compound, 1 part by weight of active compound is mixed with the stated amount of solvents and emulsifier, and the concentrate is diluted with emulsifier-containing water to the desired concentration. Discs of maize leaves (Zea mays) are sprayed with an active compound preparation of the desired concentration and, after drying, populated with caterpillars of the armyworm (Spodoptera frugiperda). After 7 days, the effect in % is determined 100% means that all caterpillars have been killed; 0% means that none of the caterpillars have been killed.

Boophilus microplus = Boophilus microplus test (BOOPMI injection); type: in vivo; conditions: 20 μg/animal, injection into the abdomen, after 7 days
Description: Solvent: dimethyl sulphoxide To produce a suitable preparation of active compound, 10 mg of active compound are mixed with 0.5 ml of solvent and the concentrate is diluted with solvent to the desired concentration. The active compound solution is injected into the abdomen (Boophilus microplus), and the animals are transferred into dishes and stored in a climate-controlled room. The activity is assessed by […] of fertile eggs. After 7 days, the effect in % is determined. 100% means that none of the ticks has laid any fertile eggs.

Phaedon cochleariae = experiment: Phaedon test (PHAECO spray treatment); type: in vivo; conditions: 168 h, sprayed Chinese cabbage discs, after 7 days, read-out: activity in % (beetle larvae killed)
Description: Solvents: 78.0 parts by weight of acetone 1.5 parts by weight of dimethylformamide Emulsifier: 0.5 part by weight of alkylaryl polyglycol ether To produce a suitable preparation of active compound, 1 part by weight of active compound is mixed with the stated amount of solvents and emulsifier, and the concentrate is diluted with emulsifier-containing water to the desired concentration. Discs of Chinese cabbage (Brassica pekinensis) are sprayed with an active compound preparation of the desired concentration and, after drying, populated with larvae of the mustard beetle (Phaedon cochleariae). After 7 days, the activity in % is determined. 100% means that all beetle larvae have been killed; 0% means that none of the beetle larvae have been killed.

Musca domestica = Musca domestica test (MUSCDO); type: in vivo; conditions: 100 ppm, treated sponge, adult flies, after 2 days
Description: as §1, with “a sponge” for “horse meat”, “adult Musca domestica.” for “about 20 Lucilia cuprina larvae.”, “flies” for “larvae”

Myzus persicae = experiment: Myzus test (MYZUPE spray treatment); type: in vivo; conditions: 100 g/ha, sprayed Chinese cabbage discs, all stages, after 6 days
Description: Solvents: 78 parts by weight of acetone 1.5 parts by weight of dimethylformamide Emulsifier: 0.5 part by weight of alkylaryl polyglycol ether To produce a suitable preparation of active compound, 1 part by weight of active compound is mixed with the stated amount of solvents and emulsifier, and the concentrate is diluted with emulsifier-containing water to the desired concentration. Discs of Chinese cabbage (Brassica pekinensis) infested by all stages of the green peach aphid (Myzus persicae) are sprayed with an active compound preparation of the desired concentration. After 6 days, the effect in % is determined. 100% means that all of the aphids have been killed; 0% means that none of the aphids have been killed.

SMILES	chromatographic logP [1]	activity in % (spider mites killed) (Tetranychus urticae) [%]	pest or weed control at 100 ppm (Lucilia cuprina) [%]	pest or weed control at 100 g/ha (Spodoptera frugiperda) [%]	effect in % (no fertile eggs laid) (Boophilus microplus) [%]	pest or weed control at 100 g/ha (Phaedon cochleariae) [%]	kill in % (Musca domestica) [%]	effect in % (aphids killed) (Myzus persicae) [%]
Cc1cc(Br)cc(C(N)=O)c1NC(=O)c1sc(Cn2nnc(C(F)(F)F)n2)nc1-c1ccccc1Cl [Compound 3]	3.45	100	100	–	–	–	–	–
Cc1cc(Cl)cc(C(=O)NC(C)(C)C)c1NC(=O)c1nc(Cn2nnc(C(F)(F)F)n2)sc1-c1ccccc1Cl [Compound 8]	4.75	80	–	–	–	–	–	–
Cc1cc(C#N)cc(C(N)=O)c1NC(=O)c1cnc(Cn2nnc(C(F)(F)F)n2)nc1-c1ccccc1Cl [Compound 40]	2.69	–	100	100	100	100	–	–
CNC(=O)c1cc(C#N)cc(C)c1NC(=O)c1cc(Cn2nnc(C(F)(F)F)n2)cn1-c1ccccc1Cl [Compound 42]	3.31	–	–	100	–	100	–	80
CNC(=O)c1cc(Cl)cc(C)c1NC(=O)c1cc(Cn2nnc(C(F)(F)F)n2)cn1-c1ccccc1Cl [Compound 43]	3.75	–	–	100	–	100	–	100
CNC(=O)c1cc(Cl)cc(C)c1NC(=O)c1cc(Cn2nnc(C(F)(F)C(F)(F)F)n2)cn1-c1ccccc1Cl [Compound 44]	4.09	–	–	100	–	100	–	–

Second part, led by results:

chromatographic logP [1]	SMILES	activity in % (spider mites killed) (Tetranychus urticae) [%]	pest or weed control at 100 ppm (Lucilia cuprina) [%]	pest or weed control at 100 g/ha (Spodoptera frugiperda) [%]	effect in % (no fertile eggs laid) (Boophilus microplus) [%]	pest or weed control at 100 g/ha (Phaedon cochleariae) [%]	kill in % (Musca domestica) [%]	effect in % (aphids killed) (Myzus persicae) [%]
3.91	Cc1cc(Cl)cc(C(=O)NC(C)C)c1NC(=O)c1cnc(Cn2nnc(C(F)(F)F)n2)nc1-c1ccccc1Cl [Compound 34]	–	100	100	100	100	–	–
3.01	Cc1cc(Cl)cc(C(N)=O)c1NC(=O)c1cnc(Cn2nnc(C(F)(F)F)n2)nc1-c1ccccc1Cl [Compound 35]	–	100	100	98	100	–	–
3.31	CNC(=O)c1cc(Cl)cc(C)c1NC(=O)c1cnc(Cn2nnc(C(F)(F)F)n2)nc1-c1ccccc1Cl [Compound 36]	–	–	100	–	100	–	–
3.5	Cc1cc(C#N)cc(C(=O)NC(C)C)c1NC(=O)c1cnc(Cn2nnc(C(F)(F)F)n2)nc1-c1ccccc1Cl [Compound 37]	–	100	100	100	100	100	–
2.93	CNC(=O)c1cc(C#N)cc(C)c1NC(=O)c1cnc(Cn2nnc(C(F)(F)F)n2)nc1-c1ccccc1Cl [Compound 38]	–	100	100	100	100	–	–
3.85	Cc1cc(C#N)cc(C(=O)NC(C)(C)C)c1NC(=O)c1cnc(Cn2nnc(C(F)(F)F)n2)nc1-c1ccccc1Cl [Compound 39]	–	100	100	100	100	–	–
4.33	Cc1cc(Cl)cc(C(=O)NC(C)(C)C)c1NC(=O)c1cnc(Cn2nnc(C(F)(F)F)n2)nc1-c1ccccc1Cl [Compound 41]	–	100	100	100	100	–	–

From patent US8980886B2, “Anthranilic acid derivatives” (Bayer Cropscience AG, priority 2010, dated 2015)
